Experimental data reported in BindingDB's records for PubMed 33422907 (Universita Paul Sabatier, 2021).

These compounds were tested against Signal transducer and activator of transcription 3 (Homo sapiens, UniProt P40763) (assay: Inhibition of STAT3 in human Hep3B cells assessed as inhibition of IL-6 stimulated STAT3 expression by luciferase reporter assay).
Chain of Signal transducer and activator of transcription 3 (P40763 whole entry): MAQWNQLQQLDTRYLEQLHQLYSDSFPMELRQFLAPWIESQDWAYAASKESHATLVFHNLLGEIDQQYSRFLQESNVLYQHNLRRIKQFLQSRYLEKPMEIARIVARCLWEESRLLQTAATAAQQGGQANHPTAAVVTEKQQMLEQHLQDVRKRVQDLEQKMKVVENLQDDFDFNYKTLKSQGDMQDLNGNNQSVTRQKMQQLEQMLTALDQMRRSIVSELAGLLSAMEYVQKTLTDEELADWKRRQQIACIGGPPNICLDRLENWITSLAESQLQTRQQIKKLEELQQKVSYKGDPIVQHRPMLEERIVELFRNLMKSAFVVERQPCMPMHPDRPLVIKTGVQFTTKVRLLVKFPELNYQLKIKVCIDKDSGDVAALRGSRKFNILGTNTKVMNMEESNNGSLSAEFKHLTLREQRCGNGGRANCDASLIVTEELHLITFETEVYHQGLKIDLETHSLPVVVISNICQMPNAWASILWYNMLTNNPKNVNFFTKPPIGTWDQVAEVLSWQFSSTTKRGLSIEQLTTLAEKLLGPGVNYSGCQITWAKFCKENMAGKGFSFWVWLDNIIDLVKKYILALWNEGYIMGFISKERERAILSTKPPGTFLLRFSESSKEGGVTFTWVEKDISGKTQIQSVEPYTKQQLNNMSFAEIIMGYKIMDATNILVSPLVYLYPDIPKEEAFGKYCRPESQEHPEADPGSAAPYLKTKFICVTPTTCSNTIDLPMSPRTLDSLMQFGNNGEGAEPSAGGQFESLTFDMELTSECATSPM

Point of comparison: `COc1cc(/C=C/C(=O)CC(=O)CC(O)c2ccc(O)c(OC)c2)ccc1O` (stereo not drawn), IC50 21.5 µM. Against it:
- O=[N+]([O-])c1ccc2c(c1)S(=O)(=O)C=C2 — 32-fold lower, 0.67 µM
- COc1ccc(CC[C@@H](O)C[C@H](O)CCc2ccc(OC)c(OC)c2)cc1OC — 2.3-fold higher, 50 µM
- COc1ccc(CC[C@H](O)C[C@@H](O)/C=C/c2cc(OC)c(OC)c(OC)c2)cc1OC — 1.7-fold higher, 37.6 µM
- COc1ccc(/C=C/[C@H](O)C[C@@H](O)CCc2ccc(OC)c(OC)c2)cc1OC — within 1.5-fold, 19.9 µM
- COc1ccc(/C=C/[C@@H](C[C@@H](O)CCc2ccc(OC)c(OC)c2)OC)cc1OC — 1.7-fold lower, 12.9 µM
- COc1ccc(/C=C/C(C[C@H](O)CCc2ccc(OC)c(OC)c2)OC)cc1OC (stereo partly drawn) — 1.9-fold lower, 11.1 µM
- COc1ccc(/C=C/C=C/C(=O)/C=C/c2ccc(O)cc2)cc1 — 5.2-fold lower, 4.1 µM
